Source: ChEMBL document CHEMBL3994603, “Antioxidant Flavonols and Phenolic Compounds from Atraphaxis frutescens and Their Inhibitory Activities against Insect Phenoloxidase and Mushroom Tyrosinase” (J Nat Prod, 2016)

target: Mushroom tyrosinase (Agaricus bisporus, UniProt O42713+Q00024+C7FF04+C7FF05)
Description: Inhibition of mushroom tyrosinase using L-DOPA as substrate preincubated for 5 mins followed by substrate addition measured for 10 mins by spectrophotometric method

| SMILES | IC50 [mM] |
| --- | --- |
| O=C(/C=C/c1ccc(O)cc1)NCCc1ccc(O)c(O)c1 | 4.3 |
| COc1cc(O)c2c(=O)c(O)c(-c3cc(O)c(O)c(O)c3)oc2c1OC(C)=O | > 5 |
| COc1cc(O)c2c(=O)c(O[C@@H]3O[C@@H](C)[C@H](O)[C@@H](O)[C@H]3O)c(-c3ccc(O)c(O)c3)oc2c1OC(C)=O | > 5 |
| COc1cc(CO[C@@H]2O[C@H](CO)[C@@H](O)[C@H](O)[C@H]2O)cc(OC)c1OC | > 5 |
| COc1cc(CO[C@@H]2O[C@H](CO[C@@H]3O[C@@H](C)[C@H](O)[C@@H](O)[C@H]3O)[C@@H](O)[C@H](O)[C@H]2O)cc(OC)c1OC | > 5 |
| COc1cc(O)c2c(=O)c(O[C@@H]3O[C@@H](C)[C@H](O)[C@@H](O)[C@H]3O)c(-c3cc(O)c(O)c(O)c3)oc2c1O | 1.2 |
| COc1cc(O)c2c(=O)c(O)c(-c3cc(O)c(O)c(O)c3)oc2c1O | > 5 |
| COc1cc(O)c2c(=O)c(O[C@@H]3O[C@@H](C)[C@H](O)[C@@H](O)[C@H]3O)c(-c3ccc(O)c(O)c3)oc2c1O | 2.2 |
| COc1cc(O)c2c(=O)c(O[C@@H]3O[C@@H](C)[C@H](O)[C@@H](O)[C@H]3O)c(-c3cc(O)c(O)c(O)c3)oc2c1O[C@@H]1O[C@H](CO)[C@@H](O)[C@H](O)[C@H]1O | 0.9 |
| COc1cc(O)c2c(=O)c(O[C@@H]3O[C@@H](C)[C@H](O)[C@@H](O)[C@H]3O)c(-c3ccc(O)c(O)c3)oc2c1O[C@@H]1O[C@H](CO)[C@@H](O)[C@H](O)[C@H]1O | 4 |
| COc1cc(O)c2c(=O)c(O[C@@H]3O[C@@H](C)[C@H](O)[C@@H](O)[C@H]3O)c(-c3cc(O)c(O)c(O)c3)oc2c1OC(C)=O | 4.7 |
| COc1cc(O)c2c(=O)c(O)c(-c3ccc(O)c(O)c3)oc2c1O | > 5 |
| COc1cc(O)c2c(=O)c(O[C@@H]3O[C@@H](C)[C@H](O)[C@@H](O)[C@H]3O)c(-c3cc(O)c(O)c(O)c3)oc2c1 | 1.1 |
| COc1cc(O)c2c(=O)c(O)c(-c3ccc(O)c(O)c3)oc2c1OC(C)=O | > 5 |
| C[C@@H]1O[C@@H](Oc2c(-c3cc(O)c(O)c(O)c3)oc3cc(O)cc(O)c3c2=O)[C@H](O)[C@H](O)[C@H]1O | 2 |
| Oc1cc(O)c2c(c1)O[C@H](c1ccc(O)c(O)c1)[C@H](O)C2 [(-)-EPICATECHIN] | > 5 |
| Oc1cc(O)c2c(c1)O[C@H](c1cc(O)c(O)c(O)c1)[C@H](O)C2 [EPIGALLOCATECHIN] | 0.7 |
| Oc1cc(O)c2c(c1)O[C@H](c1cc(O)c(O)c(O)c1)[C@@H](O)C2 [GALLOCATECHIN] | 0.16 |
| O=C(/C=C/c1ccc(O)cc1)NCCc1ccc(O)cc1 [N-P-COUMAROYL TYRAMINE] | > 5 |
| COc1cc(/C=C/C(=O)NCCc2ccc(O)cc2)ccc1O [N-TRANS-FERULOYL TYRAMINE] | > 5 |
| COc1cc(/C=C/C(=O)NCCc2ccc(O)c(O)c2)ccc1O [N-TRANS-FERULOYLDOPAMINE] | > 5 |
| Cc1c(C)c2c(c(C)c1O)CCC(C)(C(=O)O)O2 (configuration not stated) [TROLOX] | 0.7 |
